Measured values reported in patent US7348425B2, “Inhibitors of HCV replication” (Bristol-Myers Squibb Company, priority 2004, dated 2008).

Experiments:
[1] = test system: HCV replicon; assay: HCV replicon FRET assay; format: cell-based; details: Hepatitis C virus; FRET assay; read-out: EC50
How it was run: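 Replicon cells (± Renilla luciferase reporter) incubated with titrated compound at 37 °C; NS3 protease activity read by FRET peptide cleavage (20 uM EDANS/DABCYL substrate, 340/490 nm kinetic) or luciferase.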

[2] = biological target: T1, HCV NS5B RdRp genotype 1b (Hepatitis C virus genotype 1b, UniProt Q9WMX2); assay: Modified HCV NS5B RdRp enzyme assay (with preincubation); format: biochemical; details: modified method (with preincubation)
T1 construct: The protein was expressed with an 18 amino acid C-terminal truncation to enhance the solubility; made in house; host or cells: E. coli BL21 (DE3), pET21a
T1 sequence (Q9WMX2 2420-2992): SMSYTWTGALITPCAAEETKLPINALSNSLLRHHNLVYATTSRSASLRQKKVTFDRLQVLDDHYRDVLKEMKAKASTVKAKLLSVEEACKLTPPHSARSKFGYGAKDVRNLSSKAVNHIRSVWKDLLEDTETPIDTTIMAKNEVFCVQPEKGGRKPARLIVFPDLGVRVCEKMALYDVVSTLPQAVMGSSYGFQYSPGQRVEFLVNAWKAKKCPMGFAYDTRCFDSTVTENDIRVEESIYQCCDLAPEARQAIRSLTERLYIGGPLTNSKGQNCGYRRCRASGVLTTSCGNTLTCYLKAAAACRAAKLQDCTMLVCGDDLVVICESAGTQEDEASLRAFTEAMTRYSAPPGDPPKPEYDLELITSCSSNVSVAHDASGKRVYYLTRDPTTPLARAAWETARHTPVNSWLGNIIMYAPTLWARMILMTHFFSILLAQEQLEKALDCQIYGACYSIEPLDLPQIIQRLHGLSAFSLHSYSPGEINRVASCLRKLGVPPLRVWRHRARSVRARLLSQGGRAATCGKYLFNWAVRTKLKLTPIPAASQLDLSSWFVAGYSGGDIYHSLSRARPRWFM
How it was run: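 C-terminally truncated (Δ18) genotype 1b NS5B from E. coli was preincubated (14 nM) with compound, then reaction started with polyA template (0.2 nM), ³H-UTP (0.29 μM) and dT12 primer (20 nM) precaptured on SPA beads. Reaction ran 4 h at 30 °C in pH 7.5 Hepes buffer with 2% DMSO. IC50 came from seven concentrations.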

Row | SMILES | EC50 [1] [nM] | IC50 [2] [nM]
1 | O=C(O)/C=C/c1ccc(NC(=O)C2(NC(=O)c3ccc4c(C5CCCCC5)c5n(c4c3)CC(=O)Nc3ccccc3-5)CCCC2)cc1 | 10 to 1000 | 20 to 1000
2 | COC(=O)c1ccc2c(C3CCCCC3)c3n(c2c1)C[C@@H](O)[C@@H](O)c1ccccc1-3 | 1000 to 10000 | > 1000
3 | O=C(O)c1ccc2c(C3CCCCC3)c3n(c2c1)C[C@@H](O)[C@@H](O)c1ccccc1-3 | 1000 to 10000 | 20 to 1000
4 | CN(C(=O)c1ccc2c(C3CCCCC3)c3n(c2c1)CCCc1ccccc1-3)C1(C(=O)O)CCCC1 | > 10000 | 20 to 1000
5 | CN(C)S(=O)(=O)NC(=O)c1ccc2c(C3CCCCC3)c3n(c2c1)C[C@@H](O)[C@@H](O)c1ccccc1-3 | 10 to 1000 | > 1000
6 | COC(=O)/C=C/c1ccc(NC(=O)C2(NC(=O)c3ccc4c(C5CCCCC5)c5n(c4c3)C[C@@H](O)[C@@H](O)c3ccccc3-5)CCCC2)cc1 | < 100 | 20 to 1000
7 | O=C1Cc2ccccc2-c2c(C3CCCCC3)c3ccc(C(=O)O)cc3n2C1 | 1000 to 10000 | 20 to 1000
8 | O=C(O)/C=C/c1ccc(NC(=O)C2(NC(=O)c3ccc4c(C5CCCCC5)c5n(c4c3)C[C@@H](O)[C@@H](O)c3ccccc3-5)CCCC2)cc1 | 10 to 1000 | 20 to 1000
9 | COC(=O)c1ccc2c(C3CCCCC3)c3n(c2c1)CC(O)Cc1ccccc1-3 (stereo not shown) | 10 to 1000 | > 1000
10 | CN(C)S(=O)(=O)NC(=O)c1ccc2c(C3CCCCC3)c3n(c2c1)CC=Cc1ncccc1-3 | 1000 to 10000 | 20 to 1000
11 | CN(C)S(=O)(=O)NC(=O)c1ccc2c(C3CCCCC3)c3n(c2c1)C[C@@H](O)[C@@H](O)c1ncccc1-3 | > 10000 | 20 to 1000
12 | O=C(O)c1ccc2c(C3CCCCC3)c3n(c2c1)CC(O)Cc1ccccc1-3 (stereo not shown) | 1000 to 10000 | 20 to 1000
13 | COC(=O)/C=C/c1ccc(NC(=O)C2(NC(=O)c3ccc4c(C5CCCCC5)c5n(c4c3)CC(=O)Cc3ccccc3-5)CCCC2)cc1 | 10 to 1000 | > 1000
14 | COC(=O)c1ccc2c(C3CCCCC3)c3n(c2c1)C/C(=N/O)Cc1ccccc1-3 | 10 to 1000 | > 1000
15 | O=C(O)c1ccc2c(C3CCCCC3)c3n(c2c1)C/C(=N/O)Cc1ccccc1-3 | 1000 to 10000 | 20 to 1000
16 | Cn1cnc(S(=O)(=O)NC(=O)c2ccc3c(C4CCCCC4)c4n(c3c2)CC=Cc2ncccc2-4)c1 | > 10000 | 20 to 1000
17 | Cn1cnc(S(=O)(=O)NC(=O)c2ccc3c(C4CCCCC4)c4n(c3c2)C[C@@H](O)[C@@H](O)c2ncccc2-4)c1 | > 10000 | 20 to 1000
18 | CS(=O)(=O)NC(=O)c1ccc2c(C3CCCCC3)c3n(c2c1)CC=Cc1ncccc1-3 | > 10000 | 20 to 1000
19 | O=C(NS(=O)(=O)c1ccccc1)c1ccc2c(C3CCCCC3)c3n(c2c1)CC=Cc1ncccc1-3 | > 10000 | 20 to 1000
20 | O=C(NS(=O)(=O)Cc1ccccc1)c1ccc2c(C3CCCCC3)c3n(c2c1)CC=Cc1ncccc1-3 | 1000 to 10000 | 20 to 1000
21 | COC(=O)c1ccc2c(C3CCCCC3)c3n(c2c1)CC(CO)Cc1ccccc1-3 (stereo not shown) | 10 to 1000 | > 1000
22 | O=C(O)c1ccc2c(C3CCCCC3)c3n(c2c1)CC(CO)Cc1ccccc1-3 (stereo not shown) | 1000 to 10000 | 20 to 1000

Row | SMILES | EC50 [1] [nM] | IC50 [2] [nM]
23 | O=C(NS(=O)(=O)Cc1ccccc1)c1ccc2c(C3CCCCC3)c3n(c2c1)CCCc1ncccc1-3 | 1000 to 10000 | 20 to 1000
24 | O=C(NS(=O)(=O)c1ccccc1)c1ccc2c(C3CCCCC3)c3n(c2c1)C[C@@H](O)[C@@H](O)c1ncccc1-3 | 1000 to 10000 | 20 to 1000
25 | CN(C)S(=O)(=O)NC(=O)c1ccc2c(C3CCCCC3)c3n(c2c1)CC(O)Cc1ccccc1-3 (stereo not shown) | 10 to 1000 | 20 to 1000
26 | CS(=O)(=O)NC(=O)c1ccc2c(C3CCCCC3)c3n(c2c1)CCCc1ncccc1-3 | 1000 to 10000 | 20 to 1000
27 | NC(=O)c1ccc2c(C3CCCCC3)c3n(c2c1)CCCc1ncccc1-3 | 1000 to 10000 | 20 to 1000
28 | O=C(NS(=O)(=O)C1CC1)c1ccc2c(C3CCCCC3)c3n(c2c1)CC=Cc1ncccc1-3 | 1000 to 10000 | 20 to 1000
29 | CN(C)S(=O)(=O)NC(=O)c1ccc2c(C3CCCCC3)c3n(c2c1)CC(C(=O)N1CCN(c2ccncc2)CC1)=Cc1ccccc1-3 | 10 to 1000 | 20 to 1000
30 | COC(=O)c1ccc2c(C3CCCCC3)c3n(c2c1)CC(C#N)=Cc1ccccc1-3 | 1000 to 10000 | > 1000
31 | COC(=O)c1ccc2c(C3CCCCC3)c3n(c2c1)C=C(C#N)Cc1ccccc1-3 | 10 to 1000 | > 1000
32 | N#CC1=Cn2c(c(C3CCCCC3)c3ccc(C(=O)O)cc32)-c2ccccc2C1 | 1000 to 10000 | 20 to 1000
33 | COC(=O)c1ccc2c(C3CCCCC3)c3n(c2c1)CC(C(=O)O)=Cc1ccccc1-3 | 10 to 1000 | 20 to 1000
34 | CN(C)C(=O)c1ccc2c(C3CCCCC3)c3n(c2c1)CC(C(=O)N1CCOCC1)=Cc1ccccc1-3 | 1000 to 10000 | 20 to 1000
35 | COC(=O)c1ccc2c(C3CCCCC3)c3n(c2c1)CCCc1cc(OCc2cc([N+](=O)[O-])ccc2F)ccc1-3 | 1000 to 10000 | > 1000
36 | COC(=O)/C=C/c1ccc(NC(=O)C2(NC(=O)c3ccc4c(C5CCCCC5)c5n(c4c3)CCCc3ncccc3-5)CCCC2)cc1 | 10 to 1000 | 20 to 1000
37 | CN(C)S(=O)(=O)NC(=O)c1ccc2c(C3CCCCC3)c3n(c2c1)C[C@@H](C(=O)N1CCC(N2CCCC2)CC1)Cc1ccccc1-3 | 10 to 1000 | 20 to 1000
38 | CN(C)S(=O)(=O)NC(=O)c1ccc2c(C3CCCCC3)c3n(c2c1)C[C@H](C(=O)N1CCC(N2CCCC2)CC1)Cc1ccccc1-3 | 10 to 1000 | 20 to 1000
39 | O=C(C1=Cc2ccccc2-c2c(C3CCCCC3)c3ccc(C(=O)N4CCOCC4)cc3n2C1)N1CCOCC1 | 1000 to 10000 | > 1000
40 | N#Cc1ccc2c(C3CCCCC3)c3n(c2c1)CCCc1ncccc1-3 | 10 to 1000 | > 1000
41 | c1cnc2c(c1)-c1c(C3CCCCC3)c3ccc(-c4nnn[nH]4)cc3n1CCC2 | 1000 to 10000 | 20 to 1000
42 | O=C(NS(=O)(=O)C1CC1)c1ccc2c(C3CCCCC3)c3n(c2c1)CCCc1ncccc1-3 | 10 to 1000 | 20 to 1000
43 | O=C(NS(=O)(=O)c1ccccc1)c1ccc2c(C3CCCCC3)c3n(c2c1)CCCc1ncccc1-3 | 1000 to 10000 | 20 to 1000
44 | CN(C)S(=O)(=O)NC(=O)c1ccc2c(C3CCCCC3)c3n(c2c1)CCCc1ncccc1-3 | 10 to 1000 | 20 to 1000

Row | SMILES | EC50 [1] [nM] | IC50 [2] [nM]
45 | Cn1cnc(S(=O)(=O)NC(=O)c2ccc3c(C4CCCCC4)c4n(c3c2)CCCc2ncccc2-4)c1 | 1000 to 10000 | 20 to 1000
46 | O=C(c1ccc2c(C3CCCCC3)c3n(c2c1)CC(C(=O)N1CCOCC1)Cc1ccccc1-3)N1CCOCC1 (stereo not shown) | 10 to 1000 | > 1000
47 | O=C(O)c1ccc2c(C3CCCCC3)c3c4ccccc4[nH]c(=O)n3c2c1 | 10 to 1000 | > 1000
48 | CN(C)S(=O)(=O)NC(=O)c1ccc2c(C3CCCCC3)c3n(c2c1)C[C@H](C(=O)N1CCOCC1)Cc1ccccc1-3 | 10 to 1000 | 20 to 1000
49 | COC(=O)c1ccc2c(C3CCCCC3)c3n(c2c1)CC(C(=O)N(C)C)=Cc1ccccc1-3 | 1000 to 10000 | > 1000
50 | CN(C)C(=O)C1=Cc2ccccc2-c2c(C3CCCCC3)c3ccc(C(=O)O)cc3n2C1 | 10 to 1000 | 20 to 1000
51 | CN(C)C(=O)C1=Cc2ccccc2-c2c(C3CCCCC3)c3ccc(C(=O)NS(=O)(=O)N(C)C)cc3n2C1 | 10 to 1000 | 20 to 1000
52 | COC(=O)c1ccc2c(C3CCCCC3)c3n(c2c1)CC(C(=O)O)=Cc1cc(OCc2ccccc2)ccc1-3 | 1000 to 10000 | > 1000
53 | COC(=O)c1ccc2c(C3CCCCC3)c3n(c2c1)CC(C(=O)N1C[C@@H](C)O[C@@H](C)C1)=Cc1ccccc1-3 | 1000 to 10000 | > 1000
54 | C[C@@H]1CN(C(=O)C2=Cc3ccccc3-c3c(C4CCCCC4)c4ccc(C(=O)O)cc4n3C2)C[C@H](C)O1 | 10 to 1000 | 20 to 1000
55 | C[C@@H]1CN(C(=O)C2=Cc3ccccc3-c3c(C4CCCCC4)c4ccc(C(=O)NS(=O)(=O)N(C)C)cc4n3C2)C[C@H](C)O1 | 10 to 1000 | 20 to 1000
56 | COC(=O)C1=Cc2ccncc2-c2c(C3CCCCC3)c3ccc(C(=O)OC)cc3n2C1 | 1000 to 10000 | > 1000
57 | COC(=O)C1=Cc2cccnc2-c2c(C3CCCCC3)c3ccc(C(=O)OC)cc3n2C1 | 1000 to 10000 | > 1000
58 | COC(=O)c1ccc2c(C3CCCCC3)c3n(c2c1)CC(C(=O)N1CCOCC1)=Cc1cccnc1-3 | 1000 to 10000 | > 1000
59 | COC(=O)c1ccc2c(C3CCCCC3)c3n(c2c1)CC(C(=O)N1CCOCC1)=Cc1ccncc1-3 | 1000 to 10000 | > 1000
60 | O=C(O)c1ccc2c(C3CCCCC3)c3n(c2c1)CC(C(=O)N1CCOCC1)=Cc1cccnc1-3 | 10 to 1000 | 20 to 1000
61 | O=C(NS(=O)(=O)C1CC1)c1ccc2c(C3CCCCC3)c3n(c2c1)CC(C(=O)N1CCOCC1)=Cc1ccccc1-3 | 10 to 1000 | 20 to 1000
62 | CS(=O)(=O)NC(=O)c1ccc2c(C3CCCCC3)c3n(c2c1)CC(C(=O)N1CCOCC1)=Cc1ccccc1-3 | 10 to 1000 | 20 to 1000
63 | O=C(O)c1ccc2c(C3CCCCC3)c3n(c2c1)CC(C(=O)N1CCOCC1)Cc1cccnc1-3 (stereo not shown) | 1000 to 10000 | 20 to 1000
64 | CN(C)S(=O)(=O)NC(=O)c1ccc2c(C3CCCCC3)c3n(c2c1)CC(C(=O)N1CCOCC1)=Cc1cccnc1-3 | 10 to 1000 | 20 to 1000
65 | COC(=O)c1ccc2c(C3CCCCC3)c3n(c2c1)CC(N1CCOCC1)Cc1ccccc1-3 (stereo not shown) | 10 to 1000 | > 1000
